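Results reflect a 48-hour exposure of cells in 96-well plates to compound at five concentrations. Here, GI50 denotes the concentration required for 50% inhibition of growth.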 Activity calls are given as the source filed them. Cut-off read from the data, not from the text of the source: active = GI50 up to about 1.1 µM and inactive = higher.
How the values were obtained:
Test in all cases: DTP human tumour cell line panel, 48 h
A549 = tested on: A549
Malme-3M = tested on: Malme-3M
U-251 = tested on: U-251
OVCAR-4 = tested on: OVCAR-4
NCI-H522 = tested on: NCI-H522
HOP-62 = tested on: HOP-62
A498 = tested on: A498
MDA-N = tested on: MDA-N
HCT-15 = tested on: HCT-15
SN12C = tested on: SN12C
EKVX = tested on: EKVX
SK-MEL-5 = tested on: SK-MEL-5
SK-MEL-2 = tested on: SK-MEL-2
UACC-62 = tested on: UACC-62
RXF 393 = tested on: RXF 393
HOP-92 = tested on: HOP-92
CCRF-CEM = tested on: CCRF-CEM
MCF7 = tested on: MCF7
SF-268 = tested on: SF-268

Row | Structure (SMILES) | GI50 (A549) | GI50 (Malme-3M) | GI50 (U-251) | GI50 (OVCAR-4) | GI50 (NCI-H522) | GI50 (HOP-62) | GI50 (A498) | GI50 (MDA-N) | GI50 (HCT-15) [µM] | GI50 (SN12C) | GI50 (EKVX) | GI50 (SK-MEL-5) | GI50 (SK-MEL-2) | GI50 (UACC-62) | GI50 (RXF 393) | GI50 (HOP-92) | GI50 (CCRF-CEM) | GI50 (MCF7) | GI50 (SF-268)
1 | CN1C(=O)C(O)CC1c1ccccc1F (configuration not stated) | > 100 µM (inactive) | > 100 µM (inactive) | > 100 µM (inactive) | > 100 µM (inactive) | > 100 µM (inactive) | > 100 µM (inactive) | > 100 µM (inactive) | > 100 µM (inactive) | > 100 | > 100 µM (inactive) | > 100 µM (inactive) | > 100 µM (inactive) | > 100 µM (inactive) | > 100 µM (inactive) | > 100 µM (inactive) | > 100 µM (inactive) | > 100 µM (inactive) | > 100 µM (inactive) | –
2 | CCOP(=O)(C/C=C/Cn1nc(Br)c(=O)[nH]c1=O)OCC | > 100 µM (inactive) | > 100 µM (inactive) | > 100 µM (inactive) | > 100 µM (inactive) | > 100 µM (inactive) | > 100 µM (inactive) | > 100 µM (inactive) | > 100 µM (inactive) | > 100 | > 100 µM (inactive) | > 100 µM (inactive) | > 100 µM (inactive) | > 100 µM (inactive) | > 100 µM (inactive) | > 100 µM (inactive) | > 100 µM (inactive) | > 100 µM (inactive) | > 100 µM (inactive) | > 100 µM (inactive)
3 | Nc1nc(Cl)c(/C=N\O)c(NCC2(CO)CC(=O)C2)n1 | 30.8 µM (inactive) | 33.7 µM (inactive) | > 100 µM (inactive) | 84.3 µM (inactive) | 68.7 µM (inactive) | 76.9 µM (inactive) | 34.4 µM (inactive) | 96.4 µM (inactive) | > 100 | > 100 µM (inactive) | > 100 µM (inactive) | 76.7 µM (inactive) | – | – | 39.4 µM (inactive) | 40.8 µM (inactive) | 41.7 µM (inactive) | 52.5 µM (inactive) | > 100 µM (inactive)
4 | Oc1ccc2oc3c(O)c4ccccc4cc3c2c1 | 24.9 µM (inactive) | 11.4 µM (inactive) | 4.86 µM (inactive) | 1.93 µM (inactive) | 1.01 µM (active) | 35.2 µM (inactive) | 2.45 µM (inactive) | 0.927 µM (active) | 1.98 | 2.36 µM (inactive) | – | 2.85 µM (inactive) | 7.91 µM (inactive) | 0.121 µM (active) | 2.44 µM (inactive) | 10.7 µM (inactive) | 1.5 µM (inactive) | 3.33 µM (inactive) | 5.87 µM (inactive)
5 | C[C@@H](C(=O)O)N1C(c2ccco2)=C(/C(C=O)=C\c2ccco2)C(=O)/C1=C\c1ccco1 | > 100 µM (inactive) | > 100 µM (inactive) | > 100 µM (inactive) | > 100 µM (inactive) | > 100 µM (inactive) | > 100 µM (inactive) | > 100 µM (inactive) | > 100 µM (inactive) | > 100 | > 100 µM (inactive) | > 100 µM (inactive) | > 100 µM (inactive) | > 100 µM (inactive) | > 100 µM (inactive) | > 100 µM (inactive) | > 100 µM (inactive) | > 100 µM (inactive) | > 100 µM (inactive) | > 100 µM (inactive)
6 | COc1cc(/C=C2\C(=O)N(c3cccc([N+](=O)[O-])c3)C(c3ccccc3)S2(=O)=O)cc(OC)c1OC (configuration not stated) | > 100 µM (inactive) | > 100 µM (inactive) | > 100 µM (inactive) | 80 µM (inactive) | > 100 µM (inactive) | > 100 µM (inactive) | > 100 µM (inactive) | 31.1 µM (inactive) | > 100 | > 100 µM (inactive) | > 100 µM (inactive) | > 100 µM (inactive) | > 100 µM (inactive) | 80.7 µM (inactive) | > 100 µM (inactive) | > 100 µM (inactive) | 62.2 µM (inactive) | 39.7 µM (inactive) | –
7 | c1ccc2c(c1)Nc1nc3nonc3nc1N2 | > 100 µM (inactive) | > 100 µM (inactive) | > 100 µM (inactive) | 62.5 µM (inactive) | > 100 µM (inactive) | > 100 µM (inactive) | > 100 µM (inactive) | > 100 µM (inactive) | 29.4 | > 100 µM (inactive) | > 100 µM (inactive) | > 100 µM (inactive) | > 100 µM (inactive) | > 100 µM (inactive) | > 100 µM (inactive) | > 100 µM (inactive) | > 100 µM (inactive) | > 100 µM (inactive) | > 100 µM (inactive)
8 | COC(=O)c1ccc(NCc2cc(O)ccc2O)cc1O | 12.2 µM (inactive) | 16.4 µM (inactive) | 11.9 µM (inactive) | 13.2 µM (inactive) | 0.405 µM (active) | 10.9 µM (inactive) | 20.7 µM (inactive) | 10.7 µM (inactive) | 11.9 | 8.38 µM (inactive) | 13.5 µM (inactive) | 12.6 µM (inactive) | 16.4 µM (inactive) | 13.1 µM (inactive) | 7.28 µM (inactive) | 11.2 µM (inactive) | 0.877 µM (active) | 6.67 µM (inactive) | 7.29 µM (inactive)

From ChEMBL document CHEMBL1201862, “PubChem BioAssay data set” (2004)
